Reference: patent publication US9226916B2, “Pyrrolidine derivatives” (HOFFMANN-LA ROCHE INC., priority 2009, dated 2016)
pKi: −log10 of the molar value.

Molecular target: T1, recombinant human NK3 receptor (Homo sapiens, UniProt P29371)
T1 construct: expressed in transfected cells; host or cells: HEK293 cells, transient expression; membranes
T1 sequence (P29371 1-465): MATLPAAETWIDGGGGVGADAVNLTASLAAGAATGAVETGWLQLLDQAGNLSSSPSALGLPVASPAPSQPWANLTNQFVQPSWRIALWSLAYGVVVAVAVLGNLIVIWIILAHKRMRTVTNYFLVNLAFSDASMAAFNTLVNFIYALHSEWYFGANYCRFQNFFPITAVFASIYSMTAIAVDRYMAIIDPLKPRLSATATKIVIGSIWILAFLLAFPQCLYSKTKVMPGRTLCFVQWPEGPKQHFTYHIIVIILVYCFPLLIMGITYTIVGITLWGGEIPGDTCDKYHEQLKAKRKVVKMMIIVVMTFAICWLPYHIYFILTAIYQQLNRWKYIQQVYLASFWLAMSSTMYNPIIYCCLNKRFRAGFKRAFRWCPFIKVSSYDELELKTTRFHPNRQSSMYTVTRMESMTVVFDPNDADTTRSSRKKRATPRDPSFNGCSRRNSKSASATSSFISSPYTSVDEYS
Assay: [3H]SR142801 competition binding assay

| SMILES | pKi |
| --- | --- |
| CN(C(=O)Oc1ccc(F)cc1)[C@@H]1CN(C(=O)C2CCN(C(=O)C3CC(F)C3)CC2)C[C@H]1c1ccc(Cl)cc1 (stereo partly drawn) [Example 249, {(3S,4R)-4-(4-Chloro-phenyl)-1-[1-(3-fluoro-cyclobutanecarbonyl)-piperidine-4-carbonyl]-pyrrolidin-3-yl}-methyl-carbamic acid 4-fluoro-phenyl ester] | 8.72 |
| CN(C(=O)Oc1ccc(F)cc1)[C@@H]1CN(C(=O)C2CCN(C(=O)C3CC(F)(F)C3)CC2)C[C@H]1c1ccc(Cl)cc1 [Example 250, {(3S,4R)-4-(4-Chloro-phenyl)-1-[1-(3,3-difluoro-cyclobutanecarbonyl)-piperidine-4-carbonyl]-pyrrolidin-3-yl}-methyl-carbamic acid 4-fluoro-phenyl Ester] | 8.85 |
| COC1CC(C(=O)N2CCC(C(=O)N3C[C@@H](N(C)C(=O)Oc4ccc(F)cc4)[C@H](c4ccc(Cl)cc4)C3)CC2)C1 (stereo partly drawn) [Example 251, {(3S,4R)-4-(4-Chloro-phenyl)-1-[1-(3-methoxy-cyclobutanecarbonyl)-piperidine-4-carbonyl]-pyrrolidin-3-yl}-methyl-carbamic acid 4-fluoro-phenyl ester] | 8.66 |
| CN(C(=O)Oc1ccc(F)cc1)[C@@H]1CN(C(=O)C2CCN(C(=O)C3(C(F)(F)F)CCC3)CC2)C[C@H]1c1ccc(Cl)cc1 [Example 252, {(3S,4R)-4-(4-Chloro-phenyl)-1-[1-(1-trifluoromethyl-cyclobutanecarbonyl)-piperidine-4-carbonyl]-pyrrolidin-3-yl}-methyl-carbamic acid 4-fluoro-phenyl ester] | 8.57 |
| CN(C(=O)Oc1ccc(F)cc1)[C@@H]1CN(C(=O)C2CCN(C(=O)CC#N)CC2)C[C@H]1c1ccc(Cl)cc1 [Example 253, {(3S,4R)-4-(4-Chloro-phenyl)-1-[1-(2-cyano-acetyl)-piperidine-4-carbonyl]-pyrrolidin-3-yl}-methyl-carbamic acid 4-fluoro-phenyl ester] | 8.74 |
| CN(C(=O)Oc1ccc(F)cc1)[C@@H]1CN(C(=O)C2CCN(C(=O)C3(C#N)CC3)CC2)C[C@H]1c1ccc(Cl)cc1 [Example 254, {(3S,4R)-4-(4-Chloro-phenyl)-1-[1-(1-cyano-cyclopropanecarbonyl)-piperidine-4-carbonyl]-pyrrolidin-3-yl}-methyl-carbamic acid 4-fluoro-phenyl ester] | 8.70 |
| CN(C(=O)Oc1ccc(F)cc1)[C@@H]1CN(C(=O)C2CCN(C(=O)C3(C(F)(F)F)CC3)CC2)C[C@H]1c1ccc(Cl)cc1 [Example 255, {(3S,4R)-4-(4-Chloro-phenyl)-1-[1-(1-trifluoromethyl-cyclopropanecarbonyl)-piperidine-4-carbonyl]-pyrrolidin-3-yl}-methyl-carbamic acid 4-fluoro-phenyl ester] | 8.60 |
| CN(C(=O)Oc1ccc(F)cc1)[C@@H]1CN(C(=O)C2CCN(C(=O)C3CC3(F)F)CC2)C[C@H]1c1ccc(Cl)cc1 (stereo partly drawn) [Example 256, {(3S,4R)-4-(4-Chloro-phenyl)-1-[1-(2,2-difluoro-cyclopropanecarbonyl)-piperidine-4-carbonyl]-pyrrolidin-3-yl}-methyl-carbamic acid 4-fluoro-phenyl ester] | 8.59 |
| CN(C(=O)Oc1ccc(F)cc1)[C@@H]1CN(C(=O)C2CCN(C(=O)C3CCOCC3)CC2)C[C@H]1c1ccc(Cl)cc1 [Example 257, {(3S,4R)-4-(4-Chloro-phenyl)-1-[1-(tetrahydro-pyran-4-carbonyl)-piperidine-4-carbonyl]-pyrrolidin-3-yl}-methyl-carbamic acid 4-fluoro-phenyl ester] | 8.66 |
| CN(C(=O)Oc1ccc(F)cc1)[C@@H]1CN(C(=O)C2CCN(C(=O)C3CCOC(C)(C)C3)CC2)C[C@H]1c1ccc(Cl)cc1 (stereo partly drawn) [Example 258, {(3S,4R)-4-(4-Chloro-phenyl)-1-[1-(2,2-dimethyl-tetrahydro-pyran-4-carbonyl)-piperidine-4-carbonyl]-pyrrolidin-3-yl}-methyl-carbamic acid 4-fluoro-phenyl ester] | 8.54 |
| COCC1(C(=O)N2CCC(C(=O)N3C[C@@H](N(C)C(=O)Oc4ccc(F)cc4)[C@H](c4ccc(Cl)cc4)C3)CC2)CC1 [Example 259, {(3S,4R)-4-(4-Chloro-phenyl)-1-[1-(1-methoxymethyl-cyclopropanecarbonyl)-piperidine-4-carbonyl]-pyrrolidin-3-yl}-methyl-carbamic acid 4-fluoro-phenyl ester] | 8.42 |
| CN(C(=O)Oc1ccc(F)cc1)[C@@H]1CN(C(=O)C2CCN(C(=O)C3CC3(C)C)CC2)C[C@H]1c1ccc(Cl)cc1 (stereo partly drawn) [Example 260, {(3S,4R)-4-(4-Chloro-phenyl)-1-[1-(2,2-dimethyl-cyclopropanecarbonyl)-piperidine-4-carbonyl]-pyrrolidin-3-yl}-methyl-carbamic acid 4-fluoro-phenyl ester] | 8.82 |
| CN(C(=O)Oc1ccc(F)cc1)[C@@H]1CN(C(=O)C2CCN(C(=O)c3ccc(C(F)(F)F)cn3)CC2)C[C@H]1c1ccc(Cl)cc1 [Example 261, {(3S,4R)-4-(4-Chloro-phenyl)-1-[1-(5-trifluoromethyl-pyridine-2-carbonyl)-piperidine-4-carbonyl]-pyrrolidin-3-yl}-methyl-carbamic acid 4-fluoro-phenyl ester] | 7.72 |
| CN(C(=O)Oc1ccc(F)cc1)[C@@H]1CN(C(=O)C2CCN(C(=O)c3ccc(F)cn3)CC2)C[C@H]1c1ccc(Cl)cc1 [Example 262, {(3S,4R)-4-(4-Chloro-phenyl)-1-[1-(5-fluoro-pyridine-2-carbonyl)-piperidine-4-carbonyl]-pyrrolidin-3-yl}-methyl-carbamic acid 4-fluoro-phenyl ester] | 8.41 |
| CN(C(=O)Oc1ccc(F)cc1)[C@@H]1CN(C(=O)C2CCN(C(=O)C3CCC(=O)NC3)CC2)C[C@H]1c1ccc(Cl)cc1 (stereo partly drawn) [Example 263, {(3S,4R)-4-(4-Chloro-phenyl)-1-[1-(6-oxo-piperidine-3-carbonyl)-piperidine-4-carbonyl]-pyrrolidin-3-yl}-methyl-carbamic acid 4-fluoro-phenyl ester] | 7.82 |
| CC(C)N1CC(C(=O)N2CCC(C(=O)N3C[C@@H](N(C)C(=O)Oc4ccc(F)cc4)[C@H](c4ccc(Cl)cc4)C3)CC2)CCC1=O (stereo partly drawn) [Example 264, {(3S,4R)-4-(4-Chloro-phenyl)-1-[1-(1-isopropyl-6-oxo-piperidine-3-carbonyl)-piperidine-4-carbonyl]-pyrrolidin-3-yl}-methyl-carbamic acid 4-fluoro-phenyl ester] | 8.06 |
| CN(C(=O)Oc1ccc(F)cc1)[C@@H]1CN(C(=O)C2CCN(C(=O)C3CCC3)CC2)C[C@H]1c1ccc(Cl)c(Cl)c1 [Example 265, [(3S,4R)-1-(1-Cyclobutanecarbonyl-piperidine-4-carbonyl)-4-(3,4-dichloro-phenyl)-pyrrolidin-3-yl]-methyl-carbamic acid 4-fluoro-phenyl ester] | 9.22 |
| CN(C(=O)Oc1ccc(F)cc1)[C@@H]1CN(C(=O)C2CCN(C(=O)C3(C)COC3)CC2)C[C@H]1c1ccc(Cl)c(Cl)c1 [Example 266, {(3S,4R)-4-(3,4-Dichloro-phenyl)-1-[1-(3-methyl-oxetane-3-carbonyl)-piperidine-4-carbonyl]-pyrrolidin-3-yl}-methyl-carbamic acid 4-fluoro-phenyl ester] | 9.30 |
| CN(C(=O)Oc1ccc(F)cc1)[C@@H]1CN(C(=O)C2CCN(C(=O)C3CC(F)C3)CC2)C[C@H]1c1ccc(Cl)c(Cl)c1 (stereo partly drawn) [Example 267, {(3S,4R)-4-(3,4-Dichloro-phenyl)-1-[1-(3-fluoro-cyclobutanecarbonyl)-piperidine-4-carbonyl]-pyrrolidin-3-yl}-methyl-carbamic acid 4-fluoro-phenyl ester] | 9.15 |
| CN(C(=O)Oc1ccc(F)cc1)[C@@H]1CN(C(=O)C2CCN(C(=O)C3CC(F)(F)C3)CC2)C[C@H]1c1ccc(Cl)c(Cl)c1 [Example 268, {(3S,4R)-4-(3,4-Dichloro-phenyl)-1-[1-(3,3-difluoro-cyclobutanecarbonyl)-piperidine-4-carbonyl]-pyrrolidin-3-yl}-methyl-carbamic acid 4-fluoro-phenyl ester] | 9.22 |
| COC1CC(C(=O)N2CCC(C(=O)N3C[C@@H](N(C)C(=O)Oc4ccc(F)cc4)[C@H](c4ccc(Cl)c(Cl)c4)C3)CC2)C1 (stereo partly drawn) [Example 269, {(3S,4R)-4-(3,4-Dichloro-phenyl)-1-[1-(3-methoxy-cyclobutanecarbonyl)-piperidine-4-carbonyl]-pyrrolidin-3-yl}-methyl-carbamic acid 4-fluoro-phenyl ester] | 9.30 |
| CN(C(=O)Oc1ccc(F)cc1)[C@@H]1CN(C(=O)C2CCN(C(=O)C3(C(F)(F)F)CCC3)CC2)C[C@H]1c1ccc(Cl)c(Cl)c1 [Example 270, {(3S,4R)-4-(3,4-Dichloro-phenyl)-1-[1-(1-trifluoromethyl-cyclobutanecarbonyl)-piperidine-4-carbonyl]-pyrrolidin-3-yl}-methyl-carbamic acid 4-fluoro-phenyl ester] | 9.22 |
| CN(C(=O)Oc1ccc(F)cc1)[C@@H]1CN(C(=O)C2CCN(C(=O)CC#N)CC2)C[C@H]1c1ccc(Cl)c(Cl)c1 [Example 271, [(3S,4R)-1-[1-(2-Cyano-acetyl)-piperidine-4-carbonyl]-4-(3,4-dichloro-phenyl)-pyrrolidin-3-yl]-methyl-carbamic acid 4-fluoro-phenyl ester] | 10.00 |
